Source: patent publication EP4603105A1, “PHARMACEUTICAL COMPOSITION CONTAINING CYCLIC COMPOUND HAVING SELECTIVE KRAS INHIBITORY EFFECT AGAINST HRAS AND NRAS” (CHUGAI SEIYAKU KABUSHIKI KAISHA, priority 2022, dated 2024)

Tests used:
[1] = tested on: human lung cancer strain NCI-H441; type: cell-based
In short: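 Readout: […] after the ATP-based reagent. Compound: serial dilutions in dimethyl sulfoxide.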

[2] = target: HRAS wild-type protein (Homo sapiens, UniProt P01112); assay: Binding to HRAS by surface plasmon resonance (SPR), KD and KD ratio to KRAS; conditions: ratio of KD value for HRAS wild-type protein to KD value for KRAS (SPR)
In short: (§1)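 GDP-bound biotin-Avi RAS captured at ~100–300 RU, 30°C, pH 7.4 HBS containing 10 µM GDP, 10 mM MgCl2, 1 mM DTT, 0.01% Tween 20 and 4% DMSO. KD by 1:1 fitting.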

[3] = target: GDP-bound NRAS wild-type protein (Homo sapiens, UniProt P01111); assay: Binding to NRAS by surface plasmon resonance (SPR), KD and KD ratio to KRAS; conditions: ratio of KD value for GDP-bound NRAS wild-type protein to KD value for KRAS (SPR)
In short: as §1

Chain of GDP-bound NRAS wild-type protein (P01111 whole entry): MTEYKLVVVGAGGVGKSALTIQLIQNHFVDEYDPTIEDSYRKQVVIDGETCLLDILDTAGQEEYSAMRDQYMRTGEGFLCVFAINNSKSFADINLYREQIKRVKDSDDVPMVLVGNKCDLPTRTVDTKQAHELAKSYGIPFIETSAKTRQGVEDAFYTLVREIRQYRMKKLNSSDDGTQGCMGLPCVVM
Chain of HRAS wild-type protein (P01112 whole entry): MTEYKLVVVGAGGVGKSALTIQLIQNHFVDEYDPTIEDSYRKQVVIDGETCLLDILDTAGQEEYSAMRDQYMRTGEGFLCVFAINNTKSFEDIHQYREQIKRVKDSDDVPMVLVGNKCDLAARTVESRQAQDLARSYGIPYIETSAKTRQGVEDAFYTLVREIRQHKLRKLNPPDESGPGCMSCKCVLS

| Compound | IC50 [1] | HRAS /KRAS [2] | NRAS /KRAS [3] |
| --- | --- | --- | --- |
| CCO[C@@H]1C[C@H]2C(=O)NC3(CC(C)(C)C3)C(=O)N(C)[C@@H](C3CCCC3)C(=O)N(C)[C@H](C3CCC3)CC(=O)N(C)[C@@H](CC3CC3)C(=O)N[C@@H]([C@@H](C)CC)C(=O)N(C)CC(=O)N(C)[C@H]3C/C=C\CCN(C3=O)[C@@H](Cc3ccc(C(F)(F)F)cc3)C(=O)N(C)CC(=O)N[C@@H](CCc3cc(F)c(C(F)(F)F)c(F)c3)C(=O)N2C1 [PP1635] | 36.3 nM | A (a compound having 10 or more and less than 20 is denoted as A) | B (a compound having 3 or more and less than 10 is denoted as B) |
| CCO[C@@H]1C[C@H]2C(=O)NC3(CCC3)C(=O)N(C)[C@@H](C3CCCC3)C(=O)N(C)[C@H](C3CCC3)CC(=O)N(C)[C@@H](CC3CC3)C(=O)N[C@@H]([C@@H](C)CC)C(=O)N(C)CC(=O)N(C)[C@H]3C/C=C\CCN(C3=O)[C@@H](Cc3ccc(C(F)(F)F)cc3)C(=O)N(C)CC(=O)N[C@@H](CCc3cc(F)c(C(F)(F)F)c(F)c3)C(=O)N2C1 [PP1637] | 32.5 nM | A (a compound having 10 or more and less than 20 is denoted as A) | A (a compound having 10 or more and less than 20 is denoted as A) |
| CCO[C@@H]1C[C@H]2C(=O)NC3(CC(F)(F)C3)C(=O)N(C)[C@@H](C3CCCC3)C(=O)N(C)[C@H](C3CCC3)CC(=O)N(C)[C@@H](CC3CC3)C(=O)N[C@@H]([C@@H](C)CC)C(=O)N(C)CC(=O)N(C)[C@H]3C/C=C\CCN(C3=O)[C@@H](Cc3ccc(C(F)(F)F)cc3)C(=O)N(C)CC(=O)N[C@@H](CCc3cc(F)c(C(F)(F)F)c(F)c3)C(=O)N2C1 [PP1639] | 44.8 nM | A (a compound having 10 or more and less than 20 is denoted as A) | A (a compound having 10 or more and less than 20 is denoted as A) |
| CCO[C@@H]1C[C@H]2C(=O)NC3(CC(C)(C)C3)C(=O)N(C)[C@@H](C3CCCC3)C(=O)N(C)[C@H](C(=O)N(C)C)CC(=O)N(C)[C@@H](C)C(=O)N[C@@H]([C@@H](C)CC)C(=O)N(C)CC(=O)N(C)[C@H]3C/C=C\CCN(C3=O)[C@@H](Cc3ccc(C(F)(F)F)cc3)C(=O)N(C)CC(=O)N[C@@H](CCc3cc(F)c(C(F)(F)F)c(F)c3)C(=O)N2C1 [PP1641] | 4.6 nM | A (a compound having 10 or more and less than 20 is denoted as A) | A (a compound having 10 or more and less than 20 is denoted as A) |
| CCO[C@@H]1C[C@H]2C(=O)NC3(CC(C)(C)C3)C(=O)N(C)[C@@H](C3CCCC3)C(=O)N(C)[C@H](C(=O)N(C)CC)CC(=O)N(C)[C@@H](CC(F)F)C(=O)N[C@@H]([C@@H](C)CC)C(=O)N(C)CC(=O)N(C)[C@H]3C/C=C\CCN(C3=O)[C@@H](Cc3ccc(C(F)(F)F)cc3)C(=O)N(C)CC(=O)N[C@@H](CCc3cc(F)c(C(F)(F)F)c(F)c3)C(=O)N2C1 [PP1643] | 1.6 nM | A (a compound having 10 or more and less than 20 is denoted as A) | A (a compound having 10 or more and less than 20 is denoted as A) |
| CCO[C@@H]1C[C@H]2C(=O)NC3(CC(C)(C)C3)C(=O)N(C)[C@@H](C3CCCC3)C(=O)N(C)[C@H](C(=O)N(C)C)CC(=O)N(C)[C@@H](CC(F)(F)F)C(=O)N[C@@H]([C@@H](C)CC)C(=O)N(C)CC(=O)N(C)[C@H]3C/C=C\CCN(C3=O)[C@@H](Cc3ccc(C(F)(F)F)cc3)C(=O)N(C)CC(=O)N[C@@H](CCc3cc(F)c(C(F)(F)F)c(F)c3)C(=O)N2C1 [PP1644] | 2.7 nM | A (a compound having 10 or more and less than 20 is denoted as A) | A (a compound having 10 or more and less than 20 is denoted as A) |
| CCC[C@H]1C(=O)N[C@@H]([C@@H](C)CC)C(=O)N(C)CC(=O)N(C)[C@H]2C/C=C\CCN(C2=O)[C@@H](Cc2ccc(C(F)(F)F)cc2)C(=O)N(C)CC(=O)N[C@@H](CCc2cc(F)c(C(F)(F)F)c(F)c2)C(=O)N2C[C@H](OCC)C[C@H]2C(=O)NC2(CC(C)(C)C2)C(=O)N(C)[C@@H](C2CCCC2)C(=O)N(C)[C@H](C(=O)N(C)C)CC(=O)N1C [PP1645] | 1.8 nM | A (a compound having 10 or more and less than 20 is denoted as A) | A (a compound having 10 or more and less than 20 is denoted as A) |
| CCC[C@H]1C(=O)N[C@@H]([C@@H](C)CC)C(=O)N(C)CC(=O)N(C)[C@H]2C/C=C\CCN(C2=O)[C@@H](Cc2ccc(C(F)(F)F)cc2)C(=O)N(C)CC(=O)N[C@@H](CCc2cc(F)c(C(F)(F)F)c(F)c2)C(=O)N2C[C@H](OCC)C[C@H]2C(=O)NC2(CC(C)(C)C2)C(=O)N(C)[C@@H](C2CCCC2)C(=O)N(C)[C@H](C(=O)N(C)CC)CC(=O)N1C [PP1646] | 2.8 nM | A (a compound having 10 or more and less than 20 is denoted as A) | A (a compound having 10 or more and less than 20 is denoted as A) |
| CCO[C@@H]1C[C@H]2C(=O)NC3(CC(C)(C)C3)C(=O)N(C)[C@@H](C3CCCC3)C(=O)N(C)[C@H](C(=O)N(C)CC)CC(=O)N(C)[C@@H](CC3CC3)C(=O)N[C@@H]([C@@H](C)CC)C(=O)N(C)CC(=O)N(C)[C@H]3C/C=C\CCN(C3=O)[C@@H](Cc3ccc(C(F)(F)F)cc3)C(=O)N(C)CC(=O)N[C@@H](CCc3cc(F)c(C(F)(F)F)c(F)c3)C(=O)N2C1 [PP1648] | 2.1 nM | A (a compound having 10 or more and less than 20 is denoted as A) | A (a compound having 10 or more and less than 20 is denoted as A) |
| CCCC[C@H]1C(=O)N[C@@H]([C@@H](C)CC)C(=O)N(C)CC(=O)N(C)[C@H]2C/C=C\CCN(C2=O)[C@@H](Cc2ccc(C(F)(F)F)cc2)C(=O)N(C)CC(=O)N[C@@H](CCc2cc(F)c(C(F)(F)F)c(F)c2)C(=O)N2C[C@H](OCC)C[C@H]2C(=O)NC2(CC(C)(C)C2)C(=O)N(C)[C@@H](C2CCCC2)C(=O)N(C)[C@H](C(=O)N(C)C)CC(=O)N1C [PP1649] | 2.2 nM | B (a compound having 3 or more and less than 10 is denoted as B) | A (a compound having 10 or more and less than 20 is denoted as A) |
| CCO[C@@H]1C[C@H]2C(=O)NC3(CC(C)(C)C3)C(=O)N(C)[C@@H](C3CCCC3)C(=O)N(C)[C@H](C(=O)N(C)C)CC(=O)N(C)[C@@H](CC(C)C)C(=O)N[C@@H]([C@@H](C)CC)C(=O)N(C)CC(=O)N(C)[C@H]3C/C=C\CCN(C3=O)[C@@H](Cc3ccc(C(F)(F)F)cc3)C(=O)N(C)CC(=O)N[C@@H](CCc3cc(F)c(C(F)(F)F)c(F)c3)C(=O)N2C1 [PP1650] | 1.2 nM | A (a compound having 10 or more and less than 20 is denoted as A) | A (a compound having 10 or more and less than 20 is denoted as A) |
| CCO[C@@H]1C[C@H]2C(=O)NC3(CC(C)(C)C3)C(=O)N(C)[C@@H](C3CCCC3)C(=O)N(C)[C@H](C(=O)N(C)C)CC(=O)N(C)[C@@H](CC3CCC3)C(=O)N[C@@H]([C@@H](C)CC)C(=O)N(C)CC(=O)N(C)[C@H]3C/C=C\CCN(C3=O)[C@@H](Cc3ccc(C(F)(F)F)cc3)C(=O)N(C)CC(=O)N[C@@H](CCc3cc(F)c(C(F)(F)F)c(F)c3)C(=O)N2C1 [PP1651] | 2.3 nM | B (a compound having 3 or more and less than 10 is denoted as B) | A (a compound having 10 or more and less than 20 is denoted as A) |
| CCO[C@@H]1C[C@H]2C(=O)NC3(CC(C)(C)C3)C(=O)N(C)[C@@H](C3CCCC3)C(=O)N(C)[C@H](C(=O)N(C)CC)CC(=O)N(C)[C@@H](CC)C(=O)N[C@@H]([C@@H](C)CC)C(=O)N(C)CC(=O)N(C)[C@H]3C/C=C\CCN(C3=O)[C@@H](Cc3ccc(C(F)(F)F)cc3)C(=O)N(C)CC(=O)N[C@@H](CCc3ccc(C(F)(F)F)c(OC)c3)C(=O)N2C1 [PP1653] | 1.6 nM | A (a compound having 10 or more and less than 20 is denoted as A) | A (a compound having 10 or more and less than 20 is denoted as A) |
| CCO[C@@H]1C[C@H]2C(=O)NC3(CC(C)(C)C3)C(=O)N(C)[C@@H](C3CCCC3)C(=O)N(C)[C@H](C(=O)N(C)CC)CC(=O)N(C)[C@@H](CC(F)F)C(=O)N[C@@H]([C@@H](C)CC)C(=O)N(C)CC(=O)N(C)[C@H]3C/C=C\CCN(C3=O)[C@@H](Cc3ccc(C(F)(F)F)cc3)C(=O)N(C)CC(=O)N[C@@H](CCc3ccc(C(F)(F)F)c(OC)c3)C(=O)N2C1 [PP1655] | 1.6 nM | A (a compound having 10 or more and less than 20 is denoted as A) | A (a compound having 10 or more and less than 20 is denoted as A) |
| CCCN(C)C(=O)[C@@H]1CC(=O)N(C)[C@@H](COC)C(=O)N[C@@H]([C@@H](C)CC)C(=O)N(C)CC(=O)N(C)[C@H]2C/C=C\CCN(C2=O)[C@@H](Cc2ccc(C(F)(F)F)cc2)C(=O)N(C)CC(=O)N[C@@H](CCc2ccc(C(F)(F)F)c(OC)c2)C(=O)N2C[C@H](OCC)C[C@H]2C(=O)NC2(CC(C)(C)C2)C(=O)N(C)[C@@H](C2CCCC2)C(=O)N1C [PP1656] | 1.5 nM | A (a compound having 10 or more and less than 20 is denoted as A) | AA (a compound having 20 or more is denoted as AA) |
